In patent publication US6821746B2, “Methods of screening for FabK antagonists and agonists” (priority 2000, dated 2004):

Target: T1, S.pneumoniae FabK, enoyl-ACP reductase (Streptococcus pneumoniae, UniProt Q9FBC5, T318A)
T1 construct: […]; made in house; host or cells: E. coli BL21 (DE3) harboring tRNA vector pRR692; plasmid pET24bSpfabK
Experiment: FabK enzyme activity assay (NADH oxidation at 340 nm, crotonoyl-ACP reduction)
Format: biochemical
Settings: NH4+ at 100 mM; greatest activation among monovalent cations
Description: FabK catalyses the reduction of enoyl-ACPs with the concommitant oxidation of NADH. Crotonoyl-ACP can be prepared as described below. The reduction of crotonoyl-ACP to butyryl-ACP can be monitored by following the change in absorbance at 340 nm as NADH is oxidised.
Assays were carried out in Costar 3696 half-area plates in a final assay volume of 150 ul on a Spectramax platereader. Substrates, NADH and crotonoyl ACP, were incubated with FabK enzyme in 100 mM N-[2-acetamido]-2 iminodiacetic acid (ADA), pH 6.5, 100 mM NH4Cl, 4% glycerol at 30° C. and the reaction monitored at 340 nm. This assaying can also be performed using crotonyl CoA, NADPH or an NADH analogue as a substrate.

T1 sequence (Q9FBC5 whole entry T318A): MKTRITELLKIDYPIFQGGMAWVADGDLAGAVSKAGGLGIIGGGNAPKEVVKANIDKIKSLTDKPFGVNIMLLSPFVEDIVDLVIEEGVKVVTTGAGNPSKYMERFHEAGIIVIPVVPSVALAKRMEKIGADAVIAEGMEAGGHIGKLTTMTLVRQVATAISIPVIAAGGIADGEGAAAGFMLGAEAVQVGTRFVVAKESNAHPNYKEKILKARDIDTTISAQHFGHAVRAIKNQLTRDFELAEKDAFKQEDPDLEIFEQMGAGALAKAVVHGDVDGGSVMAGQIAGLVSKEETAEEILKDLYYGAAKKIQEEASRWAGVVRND

Cl.N [NH4+, NH4^+]
activation of the FabK reaction over the reaction with no monovalent cations: about 300 fold
